For seven compounds, GI50 and TGI results are on record in PubChem BioAssay (NCI).

Test systems include COLO 205 colon; RPMI-8226 leukemia; IGROV1 ovarian; RXF 393 renal; HCT-116 colon; NCI-H522 lung; MCF7 breast; SK-MEL-2 melanoma; HCC-2998 colon; NCI-H460 lung.
Experiment in all cases: growth of human tumour cells (NCI), 48 h

The structures appear in SMILES notation.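 A five-concentration, 48-hour dose response in 96-well plates underlies each endpoint, interpolated linearly between surrounding concentrations. Abbreviation: GI50, concentration required for 50% inhibition of growth. TGI: concentration producing complete growth inhibition.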 Where only a bound is given, the exact number is not on record here.

Turning to `OCc1ccc(N2CCc3ccc(F)cc3C2)cc1Cl`, the GI50 in the experiment with COLO 205 colon is 121 nM; with RPMI-8226 leukemia, 263 nM; in the experiment with IGROV1 ovarian, 20.2 nM; in the experiment on RXF 393 renal, 373 nM; with HCT-116 colon it was 26.7 nM; in the experiment with NCI-H522 lung it was 12600 nM. The GI50 in the experiment on MCF7 breast is 137 nM; in the experiment on SK-MEL-2 melanoma, 226 nM; with HCC-2998 colon, 1700 nM; with NCI-H460 lung it was 87.2 nM. The TGI is 360 nM with COLO 205 colon; 10700 nM in the experiment on RPMI-8226 leukemia; 124 nM in the experiment with IGROV1 ovarian; 12100 nM in the experiment with RXF 393 renal; 11100 nM in the experiment with HCT-116 colon; 26200 nM in the experiment with NCI-H522 lung. Moreover, the TGI with MCF7 breast was determined as 11000 nM; in the experiment with SK-MEL-2 melanoma it was 8790 nM; in the experiment on HCC-2998 colon it was 14400 nM; in the experiment on NCI-H460 lung, 532 nM.
Regarding `N#CC1=C(N)Oc2c(ccc3ccccc23)C1c1cc2ccccc2n2nnnc12` (configuration not stated), the GI50 in the experiment on COLO 205 colon was 2690 nM; in the experiment on RPMI-8226 leukemia it was 927 nM; with IGROV1 ovarian, 820 nM; in the experiment on RXF 393 renal, 1400 nM; with HCT-116 colon, 685 nM; in the experiment with NCI-H522 lung, 407 nM. Besides, the GI50 with MCF7 breast is 471 nM; in the experiment with SK-MEL-2 melanoma, 616 nM; with HCC-2998 colon, 2360 nM; with NCI-H460 lung it was 496 nM. Besides, the TGI with COLO 205 colon was 7320 nM; in the experiment on RPMI-8226 leukemia, over 100000 nM; with IGROV1 ovarian, over 100000 nM; in the experiment with RXF 393 renal, 6590 nM; in the experiment with HCT-116 colon, over 100000 nM; in the experiment on NCI-H522 lung, 2900 nM. The TGI was over 100000 nM with MCF7 breast, 6840 nM with SK-MEL-2 melanoma, over 100000 nM with HCC-2998 colon and over 100000 nM in the experiment on NCI-H460 lung.
Take `CNCc1cccc2c1OCCOCCOCCNS(=O)(=O)c1ccc(cc1)-c1cnc(N)c(n1)C(=O)N2`: the GI50 is 1020 nM in the experiment on COLO 205 colon; 1730 nM with RPMI-8226 leukemia; 513 nM with IGROV1 ovarian; 353 nM in the experiment with RXF 393 renal; 670 nM in the experiment on HCT-116 colon; 1310 nM in the experiment with NCI-H522 lung. Besides, the GI50 with MCF7 breast was 439 nM; in the experiment on SK-MEL-2 melanoma, 1760 nM; with HCC-2998 colon, 1790 nM; with NCI-H460 lung it was 1000 nM. The TGI in the experiment on COLO 205 colon worked out at 2440 nM; in the experiment with RPMI-8226 leukemia, 4260 nM; with IGROV1 ovarian, 3890 nM; in the experiment with RXF 393 renal, 1720 nM; in the experiment with HCT-116 colon, 2670 nM; in the experiment with NCI-H522 lung, 3150 nM. Also, the TGI is 5110 nM with MCF7 breast, 4410 nM in the experiment on SK-MEL-2 melanoma, 4690 nM in the experiment with HCC-2998 colon and 3250 nM in the experiment on NCI-H460 lung.
On to `CN(C)[C@@H]1C(=O)C(C(=O)NCc2nc3[nH]cnc(=S)c3[nH]2)=C(O)[C@@]2(O)C(=O)C3=C(O)c4c(O)cccc4[C@@](C)(O)[C@H]3C[C@@H]12`, for which the GI50 in the experiment on COLO 205 colon was 3870 nM; with RPMI-8226 leukemia, 4350 nM; with IGROV1 ovarian, 16000 nM; in the experiment on RXF 393 renal, 26100 nM; in the experiment with HCT-116 colon, 3300 nM; in the experiment on NCI-H522 lung it was over 100000 nM. In addition, the GI50 was 1570 nM in the experiment with MCF7 breast, over 100000 nM in the experiment on SK-MEL-2 melanoma, 5090 nM in the experiment with HCC-2998 colon and 19100 nM with NCI-H460 lung. The TGI with COLO 205 colon, in the experiment on RPMI-8226 leukemia, in the experiment on IGROV1 ovarian, in the experiment on RXF 393 renal, with HCT-116 colon and with NCI-H522 lung was over 100000 nM each time. The TGI in the experiment with MCF7 breast, with SK-MEL-2 melanoma, with HCC-2998 colon and with NCI-H460 lung was over 100000 nM throughout.
For `COc1ccc(Cn2c(Br)c3c(c2-c2cc(OC)c(OC)c(OC)c2)CCc2sc(N)nc2-3)cc1`, the GI50 in the experiment with COLO 205 colon is 1070 nM; in the experiment on RPMI-8226 leukemia, 3160 nM; with IGROV1 ovarian, 1280 nM; in the experiment on RXF 393 renal, 448 nM; in the experiment with HCT-116 colon, 1400 nM; with NCI-H522 lung, 263 nM. Moreover, the GI50 is 371 nM in the experiment with MCF7 breast, 720 nM with SK-MEL-2 melanoma, 2930 nM in the experiment on HCC-2998 colon and 1890 nM with NCI-H460 lung. The TGI in the experiment on COLO 205 colon is 3700 nM; in the experiment on RPMI-8226 leukemia, 32400 nM; with IGROV1 ovarian it was 9190 nM; with RXF 393 renal, 14800 nM; with HCT-116 colon, over 100000 nM; in the experiment on NCI-H522 lung, 1090 nM. Besides, the TGI in the experiment with MCF7 breast is 18900 nM; in the experiment on SK-MEL-2 melanoma, 5410 nM; in the experiment with HCC-2998 colon it was 12300 nM; with NCI-H460 lung it was 10200 nM.
`CN(c1ccccc1)c1c2ccccc2nc2[nH]c3ccccc3c12`: the GI50 with COLO 205 colon is 3450 nM; in the experiment with RPMI-8226 leukemia, 1490 nM; in the experiment with IGROV1 ovarian, 1790 nM; in the experiment with RXF 393 renal, 2110 nM; in the experiment on HCT-116 colon, 2890 nM; in the experiment on NCI-H522 lung it was 3560 nM. Moreover, the GI50 is 769 nM in the experiment with MCF7 breast, 7710 nM with SK-MEL-2 melanoma, 3050 nM with HCC-2998 colon and 1160 nM with NCI-H460 lung. For the same compound, the TGI was found to be 16100 nM with COLO 205 colon; 3920 nM with RPMI-8226 leukemia; 38700 nM in the experiment on RXF 393 renal; 8720 nM in the experiment with HCT-116 colon; 14900 nM in the experiment with NCI-H522 lung; 12100 nM with HCC-2998 colon. For the same compound, the TGI in the experiment with NCI-H460 lung amounted to 10300 nM.
In the case of `Nc1cc(C(F)(F)F)c(-c2nc(N3CCOCC3)nc(N3CCOCC3)n2)cn1`, the GI50 in the experiment with COLO 205 colon is 265 nM; with RPMI-8226 leukemia, 709 nM; in the experiment with IGROV1 ovarian, 91.6 nM; in the experiment on RXF 393 renal, 241 nM; in the experiment on HCT-116 colon, 605 nM; in the experiment with NCI-H522 lung, 624 nM. Besides, the GI50 was 113 nM with MCF7 breast, 618 nM in the experiment with SK-MEL-2 melanoma, 633 nM in the experiment with HCC-2998 colon and 299 nM in the experiment on NCI-H460 lung. Further, the TGI with COLO 205 colon is 10000 nM; in the experiment with RPMI-8226 leukemia it was over 75900 nM; in the experiment on IGROV1 ovarian it was 528 nM; with RXF 393 renal, 1070 nM; in the experiment with HCT-116 colon it was over 100000 nM; with NCI-H522 lung, over 83900 nM. Also, the TGI in the experiment with MCF7 breast was 19000 nM; in the experiment with SK-MEL-2 melanoma, 8680 nM; with HCC-2998 colon, over 88000 nM; in the experiment on NCI-H460 lung, over 53300 nM.
